From ChEMBL document CHEMBL1134968, “Prodrug and covalent linker strategies for the solubilization of dual-action antioxidants/iron chelators” (Bioorg Med Chem Lett, 2002)
Converted amounts (≈) assume the structure as drawn.

Assay: Compound was tested for its solubility in DMSO/H2O in a ratio of (1:9)
Assay type: ADME
Details: DMSO/H2O (1:9); read-out: S

Row | Structure (SMILES) | solubility [µg/mL]
1 | Cc1c(O)c(=O)ccn1CCNCc1cc(C(C)(C)C)c(O)c(C(C)(C)C)c1 | 10000

Assay: Compound was tested for its solubility in water
Assay type: ADME
Details: read-out: S

Row | Structure (SMILES) | solubility [µg/mL]
2 | Cc1c(C)c2c(c(C)c1OC(=O)CCCN)CC(CCn1ccc(=O)c(O)c1C)O2 (stereo not given) | 10000 (≈ 24.1 mM)
3 | CNCC(=O)Oc1c(C)c(C)c2c(c1C)CC(CCn1ccc(=O)c(O)c1C)O2 (stereo not given) | > 20000
4 | Cc1c(C)c2c(c(C)c1O)CC(CCn1ccc(=O)c(O)c1C)O2 (stereo not given) | < 100
5 | Cc1c(C)c2c(c(C)c1OC(=O)CCN)CC(CCn1ccc(=O)c(O)c1C)O2 (stereo not given) | 10000 (≈ 25 mM)
6 | Cc1c(O)c(=O)ccn1CCOCCOCCOCCOCCOCCCc1cc(C(C)(C)C)c(O)c(C(C)(C)C)c1 | < 100
7 | Cc1c(OC(=O)CCN)c(=O)ccn1CCCc1cc(C(C)(C)C)c(O)c(C(C)(C)C)c1 | > 20000
8 | Cc1c(C)c2c(c(C)c1O)CCC(C)(CNCCCCn1ccc(=O)c(O)c1C)O2 (stereo not given) | < 100
9 | CC(=O)Oc1c(C)n(CCCc2cc(C(C)(C)C)c(O)c(C(C)(C)C)c2)ccc1=O | < 100
10 | Cc1c(OC(=O)c2ccc(N)cc2)c(=O)ccn1CCCc1cc(C(C)(C)C)c(O)c(C(C)(C)C)c1 | < 100
11 | Cc1c(O)c(=O)ccn1CCOCCOCCOCCOCCCc1cc(C(C)(C)C)c(O)c(C(C)(C)C)c1 | < 100
12 | Cc1c(C)c2c(c(C)c1OC(=O)CN(C)C)CC(CCn1ccc(=O)c(O)c1C)O2 (stereo not given) | > 20000
13 | Cc1c(C)c2c(c(C)c1OC(=O)c1ccc(N)cc1)CC(CCn1ccc(=O)c(O)c1C)O2 (stereo not given) | < 100
14 | Cc1c(O)c(=O)ccn1CCCc1cc(C(C)(C)C)c(O)c(C(C)(C)C)c1 | < 100
15 | Cc1c(C)c2c(c(C)c1OC(=O)C(N)C(C)C)CC(CCn1ccc(=O)c(O)c1C)O2 (stereo not given) | > 20000
